Test results reported in patent US20070259879A1, “Piperazine and piperidine biaryl derivatives” (priority 2006, published 2007).

test system: HIV-1 pseudotyped virus; test: HIV-1 pseudotyped virus assay (luciferase reporter gene, single cycle of infection); format: cell-based; details: Human immunodeficiency virus 1, CCR5, 72 h, read-out: Activity (antiviral activity, IC50)
Text: In this example are illustrated experimental procedures for determining biological activity, such as antiviral activity. For determining biological activity, an HIV-1 infection assay was used to determine the antiviral potency for compounds of the present invention.
For determining biological activity, an HIV-1 pseudotyped virus assay was used to determine the respective antiviral potencies of each compound tested in the assay for comparison. The pseudotyped assay scores for a reduction in infection as indicated by decreased signal from the reporter gene encoding a luciferase enzyme (“reporter gene”). The assay employs cell lines expressing CD4 and either of the primary chemokine receptors (CCR5 or CXCR4) that HIV uses as a co-receptor (“target cells”). Pseudotyped virus was prepared by co-transfection of 293T cells with: 1) a plasmid construct carrying the HIV-1 envelope of choice, in combination with 2) a pseudotyped virus backbone construct in which (a) envelope expression has been abrogated due to a frameshift in the envelope sequence, and (b) the reporter gene replaces nef. Expression of HIV-1 envelope on 293T packaging cells results in the production of a pseudotyped virus carrying the reporter gene that is capable of a single cycle of infection.
The compounds of the present invention being tested for antiviral activity were serially diluted and dose responses determined in duplicate in two separate experiments. The compounds to be tested were added directly to the plated, target cells, followed by the addition of pseudotyped virus described above. The cells were cultured for three days prior harvest. Media and compound were removed, the cell monolayer was washed, lysed by detergent, and then frozen at −80 degrees C. for a minimum of 30 minutes. Following thawing and acclimation to room temperature, luciferase production was quatified by injecting 100 […]I of a substrate (of the enzyme encoded by the reporter gene) into each well followed by detecting the signal (light emitted from the interaction between the enzyme and substrate) after 5 seconds. In the pseudotyped assay, a 50% reduction in signal is significant, and provides the primary cutoff value for assessing antiviral activity (“IC50” is defined as the dilution resulting in a 50% reduction in enzymatic activity as interpolated from a titration curve). Representative compounds according to the present invention, and their antiviral activity, are illustrated in Table 3.

CC1CN(C(=O)c2ccccc2)CCN1S(=O)(=O)c1ccc(-c2cc(-n3ccnc3)ncn2)s1 (stereo not shown) [Example 152, (4-(5-(6-(1H-imidazol-1-yl)pyrimidin-4-yl)thiophen-2-ylsulfonyl)-3-methylpiperazin-1-yl)(phenyl)methanone] and C[C@@H]1CN(C(=O)c2ccccc2)CCN1S(=O)(=O)c1ccc(-c2ccccn2)s1 [Example 168, [(R)-3-Methyl-4-(5-pyridinyl-2-yl-thiophene-2-sulfonyl)-piperazin-1-yl]-phenyl-methanone] cannot be ordered by IC50: over 5 µM for the first, over 5 µM for the second.

CC1CN(C(=O)c2ccccc2)CCN1S(=O)(=O)c1ccc(-c2ccncc2)s1 (stereo not shown) [Example 153, (3-methyl-4-(5-(pyridin-4-yl)thiophen-2-ylsulfonyl)piperazin-1-yl)(phenyl)methanone] and C[C@@H]1CN(C(=O)c2ccccc2)CCN1S(=O)(=O)c1ccc(-c2csnn2)s1 [Example 165, [(R)-3-Methyl-4-(5-[1,2,3]thiadiazol-4-yl-thiophene-2-sulfonyl)-piperazin-1-yl]-phenyl-methanone] cannot be ordered by IC50: over 5 µM for the first, over 5 µM for the second.

CC1CN(C(=O)c2ccccc2)CCN1S(=O)(=O)c1ccc(-c2nncc3ccccc23)s1 (stereo not shown) [Example 154, (3-methyl-4-(5-(phthalazin-1-yl)thiophen-2-ylsulfonyl)piperazin-1-yl)(phenyl)methanone] and CC1CN(C(=O)c2ccccc2)CCN1S(=O)(=O)c1ccc(-c2ccc(-c3ccccc3)nn2)s1 (stereo not shown) [Example 156, (3-methyl-4-(5-(6-phenylpyridazin-3-yl)thiophen-2-ylsulfonyl)piperazin-1-yl)(phenyl)methanone] cannot be ordered by IC50: over 5 µM for the first, over 5 µM for the second.

CC(=O)c1cccc(-c2ccc(S(=O)(=O)N3CCN(C(=O)c4ccccc4)CC3C)s2)n1 (stereo not shown) [Example 155, 1-(6-(5-(4-benzoyl-2-methylpiperazin-1-ylsulfonyl)thiophen-2-yl)pyridin-2-yl)ethanone] and Cc1nc2cc(-c3ccc(S(=O)(=O)N4CCN(C(=O)c5ccccc5)CC4C)s3)ccc2s1 (stereo not shown) [Example 158, (3-methyl-4-(5-(2-methylbenzo[d]thiazol-5-yl)thiophen-2-ylsulfonyl)piperazin-1-yl)(phenyl)methanone] cannot be ordered by IC50: over 5 µM for the first, over 5 µM for the second.

CC1CN(C(=O)c2ccccc2)CCN1S(=O)(=O)c1ccc(-c2ncccc2C(F)(F)F)s1 (stereo not shown) [Example 157, (3-methyl-4-(5-(3-(trifluoro-methyl)pyridin-2-yl)thiophen-2-ylsulfonyl)piperazin-1-yl)(phenyl)methanone] and C[C@@H]1CN(C(=O)c2ccccc2)CCN1S(=O)(=O)c1ccc(-c2cc(C(F)(F)F)on2)s1 [Example 167, [(R)-3-Methyl-4-(5-[(5-trifluoromethyl)-isoxazol-3-yl]-thiophene-2-sulfonyl)-piperazin-1-yl]-phenyl-methanone] cannot be ordered by IC50: over 5 µM for the first, over 5 µM for the second.

Compared with CC1CN(C(=O)c2ccccc2)CCN1S(=O)(=O)c1ccc(-c2cnco2)cc1 (stereo not shown) [Example 166, [3-Methyl-4-(4-oxazol-5-yl-benzenesulfonyl)-piperazin-1-yl]-phenyl methanone], C[C@@H]1CN(C(=O)c2ccccc2)CCN1C(=O)C(=O)c1ccc(-c2cnco2)c(Cl)c1 [Example 189] is lower in IC50: over 5 µM for the first, under 5 µM for the second.

CC1CN(C(=O)c2ccccc2)CCN1C(=O)C(=O)c1ccc(-c2ccn[nH]2)cc1 (stereo not shown) [Example 169, 1-(4-Benzoyl-2-methyl-piperazin-1-yl)-2-[4-(2H-pyrazol-3-yl)-phenyl]-ethane-1,2-dione] and CC1CN(C(=O)c2ccccc2)CCN1C(=O)C(=O)c1ccc(-c2ccn(C)n2)cc1 (stereo not shown) [Example 172, 1-(4-Benzoyl-2-methyl-piperazin-1-yl)-2-[4-(1-methyl-1H-pyrazol-3-yl)-phenyl]-ethane-1,2-dione] cannot be ordered by IC50: under 5 µM for the first, under 5 µM for the second.

CC1CN(C(=O)c2ccccc2)CCN1C(=O)C(=O)c1ccc(-n2cncn2)cc1 (stereo not shown) [Example 170, 1-(4-Benzoyl-2-methyl-piperazin-1-yl)-2-(4-[1,2,4]triazol-1-yl-phenyl)-ethane-1,2-dione] and C[C@@H]1CN(C(=O)c2ccccc2)CCN1C(=O)C(=O)c1ccc(-n2cccn2)cc1 [Example 193, 1-((R)-4-Benzoyl-2-methyl-piperazin-1-yl)-2-(4-pyrazol-1-yl-phenyl)-ethane-1,2-dione] cannot be ordered by IC50: under 5 µM for the first, under 5 µM for the second.

CC1CN(C(=O)c2ccccc2)CCN1C(=O)C(=O)c1ccc(-c2ccco2)cc1 (stereo not shown) [Example 171, 1-(4-Benzoyl-2-methyl-piperazin-1-yl)-2-(4-furan-2-yl-phenyl)-ethane-1,2-dione] and Cc1ccc(-c2ccc(C(=O)C(=O)N3CCN(C(=O)c4ccccc4)CC3C)cc2)o1 (stereo not shown) [Example 173, 1-(4-Benzoyl-2-methyl-piperazin-1-yl)-2-[4-(5-methyl-furan-2-yl)-phenyl]-ethane-1,2-dione] cannot be ordered by IC50: under 5 µM for the first, under 5 µM for the second.

Compared with CC1CN(C(=O)c2ccccc2)CCN1C(=O)C(=O)c1ccc(-n2nccn2)cc1 (stereo not shown) [Example 174, 1-(4-Benzoyl-2-methyl-piperazin-1-yl)-2-(4-[1,2,3]triazol-2-yl-phenyl)-ethane-1,2-dione], C[C@@H]1CN(C(=O)c2ccccc2)CCN1C(=O)C(=O)c1ccc(-c2nccn2C)cc1 [Example 187] is higher in IC50: under 5 µM for the first, over 5 µM for the second.

COc1cc(C(=O)C(=O)N2CCN(C(=O)c3ccccc3)C[C@H]2C)ccc1-c1cnco1 [Example 175] and COc1cc(C(=O)C(=O)N2CCN(C(=O)c3ccccc3)C[C@H]2C)ccc1-c1cc(C)no1 [Example 185] cannot be ordered by IC50: under 5 µM for the first, under 5 µM for the second.

C[C@@H]1CN(C(=O)c2ccccc2)CCN1C(=O)C(=O)c1ccc(-c2cncs2)cc1 [Example 176] and C[C@@H]1CN(C(=O)c2ccccc2)CCN1C(=O)C(=O)c1ccc(-c2cscn2)cc1 [Example 177] cannot be ordered by IC50: under 5 µM for the first, under 5 µM for the second.

C[C@@H]1CN(C(=O)c2ccccc2)CCN1C(=O)C(=O)c1ccc(-c2cscn2)s1 [Example 178] and C[C@@H]1CN(C(=O)c2ccccc2)CCN1C(=O)C(=O)c1ccc(-c2cncs2)s1 [Example 179] cannot be ordered by IC50: under 5 µM for the first, under 5 µM for the second.

COc1cc(-c2cc(C)no2)ccc1C(=O)C(=O)N1CCN(C(=O)c2ccccc2)C[C@H]1C [Example 180] and COc1cc(-c2cc[nH]n2)ccc1C(=O)C(=O)N1CCN(C(=O)c2ccccc2)C[C@H]1C [Example 190] cannot be ordered by IC50: under 5 µM for the first, under 5 µM for the second.

Cc1cc(-c2cc[nH]n2)ccc1C(=O)C(=O)N1CCN(C(=O)c2ccccc2)C[C@H]1C [Example 181, 1-((R)-4-Benzoyl-2-methyl-piperazin-1-yl)-2-[2-methyl-4-(1H-pyrazol-3-yl)-phenyl]-ethane-1,2-dione] and C[C@@H]1CN(C(=O)c2ccccc2)CCN1C(=O)C(=O)c1ccc(-c2cc[nH]n2)cc1F [Example 183] cannot be ordered by IC50: under 5 µM for the first, under 5 µM for the second.

Cc1ncc(-c2ccc(C(=O)C(=O)N3CCN(C(=O)c4ccccc4)C[C@H]3C)s2)s1 [Example 182] and C[C@@H]1CN(C(=O)c2ccccc2)CCN1C(=O)C(=O)c1ccc(-c2nccn2C)s1 [Example 188] cannot be ordered by IC50: over 5 µM for the first, over 5 µM for the second.

Cc1cc(C(=O)C(=O)N2CCN(C(=O)c3ccccc3)C[C@H]2C)ccc1-c1cc[nH]n1 [Example 184, 1-((R)-4-Benzoyl-2-methyl-piperazin-1-yl)-2-[3-methyl-4-(1H-pyrazol-3-yl)-phenyl]-ethane-1,2-dione] and COc1cc(C(=O)C(=O)N2CCN(C(=O)c3ccccc3)C[C@H]2C)ccc1-c1cc[nH]n1 [Example 191] cannot be ordered by IC50: under 5 µM for the first, under 5 µM for the second.

First: C[C@@H]1CN(C(=O)c2ccccc2)CCN1C(=O)C(=O)c1ccc(-c2ccn[nH]2)nc1 [Example 186, 1-((R)-4-Benzoyl-2-methyl-piperazin-1-yl)-2-[6-(1H-pyrazol-3-yl)-pyridin-3-yl]-ethane-1,2-dione]
Second: Cc1noc(C)c1-c1ccc(C(=O)C(=O)N2CCN(C(=O)c3ccccc3)C[C@H]2C)cn1 [Example 194]
The IC50 of the first is lower: under 5 µM for the first, over 5 µM for the second. The first is the more potent here.

Compared with C[C@@H]1CN(C(=O)c2ccccc2)CCN1C(=O)C(=O)c1ccc(-c2cc[nH]n2)cc1Cl [Example 192], Cc1cc(-n2cccn2)ccc1C(=O)C(=O)N1CCN(C(=O)c2ccccc2)C[C@H]1C [Example 195, 1-((R)-4-Benzoyl-2-methyl-piperazin-1-yl)-2-(2-methyl-4-pyrazol-1-yl-phenyl)-ethane-1,2-dione] is higher in IC50: under 5 µM for the first, over 5 µM for the second. The first is the more potent here.

First: C[C@@H]1CN(C(=O)c2ccccc2)CCN1C(=O)C(=O)c1c[nH]c(-c2cccnc2)c1 [Example 196]
Second: C[C@@H]1CN(C(=O)c2ccccc2)CCN1C(=O)C(=O)c1ccc(-c2cccnc2)cc1 [Example 199]
The IC50 of the first is higher: over 5 µM for the first, under 5 µM for the second.

CC1CN(C(=O)c2ccccc2)CCN1C(=O)C(=O)c1ccc(-c2cnn(C)c2)cc1 (stereo not shown) [Example 197] and CC1CN(C(=O)c2ccccc2)CCN1C(=O)C(=O)c1ccc(-c2ncccc2F)cc1 (stereo not shown) [Example 200] cannot be ordered by IC50: under 5 µM for the first, under 5 µM for the second.

Compound CC(=O)c1ccc(-c2ccc(C(=O)C(=O)N3CCN(C(=O)c4ccccc4)C[C@H]3C)cc2)s1 [Example 198] has an IC50 of under 5 µM.
